Values quoted from earlier work as cited in patent publication US20130292614A1, “F[…] AS […]” (3M INNOVATIVE PROPERTIES COMPANY, priority 2011, published 2013).

Conditions: inhalation; 2.5 to 3 hour; cited from earlier work

FC(F)(F)C1(F)OC1(F)F (stereo not shown) [C3 perfluorooxirane]
acute lethal concentration (ALC): 200 ppm
